From paper PMC7021728, “Structure of the agonist 12–HHT in its BLT2 receptor-bound state” (Scientific Reports, 2020)
Where a chain is given by its changes, count along the chain named.

Experiments:
BLT2 R270^7.35A = biological target: T1, BLT2 R270^7.35A (Homo sapiens, UniProt Q9NPC1, R270A); assay: Gi protein activation catalyzed by BLT2 mutant; assay type: biochemical; conditions: R270 mutation compared to wild-type, in words
T1 construct: made in house
T1 sequence (Q9NPC1 1-358 R270A): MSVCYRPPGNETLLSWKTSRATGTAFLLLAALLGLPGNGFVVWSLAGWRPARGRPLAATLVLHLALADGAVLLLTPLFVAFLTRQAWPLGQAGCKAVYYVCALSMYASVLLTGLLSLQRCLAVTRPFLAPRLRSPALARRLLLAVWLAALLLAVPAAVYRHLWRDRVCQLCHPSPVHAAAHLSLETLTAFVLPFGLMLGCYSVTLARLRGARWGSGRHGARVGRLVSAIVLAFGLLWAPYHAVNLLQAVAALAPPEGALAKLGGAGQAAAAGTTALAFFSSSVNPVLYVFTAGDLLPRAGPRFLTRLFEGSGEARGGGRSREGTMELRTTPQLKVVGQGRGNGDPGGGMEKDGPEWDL
Protocol: (§1) All mutations were introduced in the wild-type BLT2 receptor by PCR-mediated mutagenesis using the QuickChange multisite-directed mutagenesis kit (Stratagene) and the wild-type BLT2 construct as a template. Mutations were confirmed by nucleotide sequencing.
(§2) Gαi2 and Gβ1γ2 were prepared as previously described. Briefly, agonist-dependent functional coupling of the purified receptor to Gαi2β1γ2 was assessed through the rate of GTPγS binding at increasing agonist concentrations determined by monitoring the relative increase in the intrinsic fluorescence ( λexcitation=300nm , λemission=345nm ) of Gαi2 (200 nM of purified G protein) in the presence of BLT2 (20 nM) in buffer containing 10 mM MOPS, pH 7.2, 130 mM NaCl, and 2 mM MgCl2 at 15 °C after the addition of 10 μM GTPγS. The data were normalized to the fluorescence maximum obtained in the presence of saturating concentrations in 12–HHT (10 μM).

BLT2 S174^ECL2A = biological target: T2, BLT2 S174^ECL2A (Homo sapiens, UniProt Q9NPC1, S174A); assay: Gi protein activation catalyzed by BLT2 mutant; assay type: biochemical; conditions: S174 mutation compared to wild-type, in words
T2 construct: made in house
T2 sequence (Q9NPC1 1-358 S174A): T1 sequence (Q9NPC1 1-358 R270A) with S174A, A270R
Protocol: as §1, §2

BLT2 = biological target: BLT2; design: method as in PMID 10934230; conditions: cited from earlier work
[1] = test system: BLT1 (residue R156 in BLT1 mutated to alanine); design: method as in PMID 17237498; conditions: in words; cited from earlier work
BLT1 = biological target: BLT1; design: method as in PMID 10934230; conditions: membrane fractions, BLT1 transfected HEK 293 cells; in cellulo; read-out: equilibrium dissociation constant (Kd); cited from earlier work
purified BLT2 receptor = biological target: purified BLT2 receptor; design: method as in PMID 21688157; conditions: purified BLT2 associated with amphipols in solution, in vitro; cited from earlier work

effect of the mutation on ligand binding (BLT2 R270^7.35A): does not affect the binding
effect of the mutation on ligand binding (BLT2 S174^ECL2A): does not affect the binding
Structure (SMILES): CCCCC/C=C\C[C@@H](O)/C=C/C=C/C=C\[C@@H](O)CCCC(=O)O [LTB4, leukotriene B4]
Kd (BLT2; membrane fractions, BLT2 transfected HEK 293 cells, in cellulo, read-out: equilibrium dissociation constant (Kd)): ~20 nM
Kd weaker in the case of BLT2 compared to BLT1 (BLT2; transfected HEK 293 cells): 20 fold
effect of the mutation on LTB4 binding [1]: complete loss of LTB4 binding
Kd (BLT1): ~1 nM
Kd (purified BLT2 receptor): ~200 nM
